Assay [1] deals with tolC-deficient JW5503 strain (BW25113ΔtolC). The assay can be described thus: Cross streak method, growth inhibition (antibacterial) width. The settings on record: L agar, overnight at 30° C. The format is cell-based, Escherichia coli. On the procedure: (§1) Influence of a tolC gene deficiency on N-acetylserine (NAS) and O-acetylserine (OAS) sensitivity was investigated in a strain which is deficient in a part of or the entire tolC gene by the cross streak method. In order to compare growth inhibition by NAS (2 M), OAS (2 M), L-cysteine (2 M) and L-serine (1 M), the tolC-deficient JW5503 strain, and the wild-type BW25113 strain used as a control, were cultured overnight in the L liquid medium, and each culture medium was streaked on the L agar medium with a platinum loop. A strip-shaped filter paper onto which each of the aforementioned reagents was dropped, was placed on each of the strains in a direction perpendicular to the streaking direction, and the strains were cultured overnight at 30° C. After the culture, lengths of the filter paper on which growth of the bacteria was inhibited (antibacterial widths) were measured, and the antibacterial activities of the regents on both the strains were compared.

The test system of another assay is wild-type BW25113 strain. The description is as above. It counts as cell-based, Escherichia coli. The following applies: L agar, overnight at 30° C. On the procedure:
as §1

Another assay deals with wild-type strains. The assay is described as follows: Growth on LB agar media containing cysteine (Keio collection screening). The format is cell-based, E. coli BW25113. The following applies: overnight at 37° C. On the procedure: The 3,985 clones of the Keio collection were cultured at 37° C. for 15 hours in 0.5 ml of LB liquid medium. This culture medium was stamped on LB agar media containing cysteine at different concentrations (0, 15, 20, 25 mM), and culture was performed overnight at 37° C. Clones that were sensitive to cysteine at a concentration not higher than the growth inhibition concentration of cysteine for wild-type strains (20 mM) were visually selected. […] A strain which is deficient in a part of or the entire tolC gene was obtained as a clone showing particularly strong and distinctive cysteine sensitivity among the above candidates. TolC is an example of a protein called a porin, which localizes in the outer membrane and forms a channel for substance transportation via the outer membrane. Although the presence of many other porins was known for E. coli, TolC was the only porin selected by this screening, among the several candidates considered showing strong cysteine sensitivity.

Assay [2] has as its system tolC gene-deficient strain JW5503/pCA24. The assay can be described thus: Growth test of serially diluted cell suspensions spotted on L agar medium containing cysteine. The format is cell-based, Escherichia coli. The following applies: L agar with 10, 15, 20 mM cysteine, 37° C. overnight; FIG. 1. The source says:
Since a strain which is deficient in a part of or the entire tolC gene was obtained by the screening of the Keio Collection, growth of the gene-deficient strain was observed on the agar medium containing cysteine of different concentrations in order to analyze the sensitivity of that strain to cysteine in more detail. The strain which is deficient in a part of or the entire tolC gene used here was the JW5503 strain (Keio collection), and the parent strain thereof was the BW25113 strain (Andreas Haldimann, A. and Wanner, B. L., J. Bacteriol., 2001 November; 183 (21):6384-6393). The plasmid carrying the tolC gene for a complementation experiment was pTolC (ASKA clone, Kitagawa, M, et al., 2005; DNA Res., 12:291-299), and the vector used as the base thereof was pCA24 (vector for ASKA clone, Kitagawa, M, et al., 2005, DNA Res., 12:291-299).
The bacteria containing each of the plasmids were each inoculated into 5 ml of L medium (10 g/L of Bacto trypton, 5 g/L of Bacto yeast extract, 5 g/L of NaCl), and cultured overnight at 37° C. […]

The mark [3] stands for this setting: reagent 2 M on filter paper strip.
Setting [4] is: reagent 1 M on filter paper strip.

Some results are limits rather than exact numbers.

The record followed here is US8278075B2, “L-cysteine-producing bacterium and a method for producing L-cysteine” (Ajinomoto Co., Inc., priority 2008, dated 2012).

As for `N[C@@H](CS)C(=O)O` [L-Cysteine], the Growth inhibition width in assay [1] (setting [3]) is recorded as 5 mm; in the assay on wild-type BW25113 strain (setting [3]), less than 1 mm. For the same molecule, the “growth inhibition concentration of cysteine for wild-type strains” value in the assay on wild-type strains turned out to be 20 mM. Moreover, the “cysteine sensitivity of growth compared with the control strain BW25113/pCA24” value in assay [2] was “marked cysteine sensitivity”.

For `N[C@@H](CO)C(=O)O` [L-Serine], the Growth inhibition width (in assay [1] (setting [4]); in the assay with wild-type BW25113 strain (setting [4])) was 0 mm in each case.

For `CC(=O)N[C@@H](CO)C(=O)O` [N-Acetylserine], the Growth inhibition width was 10 mm in assay [1] (setting [3]) and less than 2 mm in the assay with wild-type BW25113 strain (setting [3]).

`CC(=O)OC[C@H](N)C(=O)O` [O-Acetylserine]: the Growth inhibition width in assay [1] (setting [3]) was 4 mm; in the assay on wild-type BW25113 strain (setting [3]) it was less than 1 mm.
